We go through 7 compounds from US20230151003A1, “COMPOUNDS AND METHODS OF USE” (Exelixis, Inc., priority 2020, published 2023).

In general, IC50 refers to the concentration needed to halve the response being measured.

Assay [1] deals with T1, AXL (Homo sapiens, UniProt P30530).
T1 construct: endogenous in cells; host or cells: A-172 glioblastoma cells (ATCC #CRL-1620)
T1 sequence (P30530 26-894): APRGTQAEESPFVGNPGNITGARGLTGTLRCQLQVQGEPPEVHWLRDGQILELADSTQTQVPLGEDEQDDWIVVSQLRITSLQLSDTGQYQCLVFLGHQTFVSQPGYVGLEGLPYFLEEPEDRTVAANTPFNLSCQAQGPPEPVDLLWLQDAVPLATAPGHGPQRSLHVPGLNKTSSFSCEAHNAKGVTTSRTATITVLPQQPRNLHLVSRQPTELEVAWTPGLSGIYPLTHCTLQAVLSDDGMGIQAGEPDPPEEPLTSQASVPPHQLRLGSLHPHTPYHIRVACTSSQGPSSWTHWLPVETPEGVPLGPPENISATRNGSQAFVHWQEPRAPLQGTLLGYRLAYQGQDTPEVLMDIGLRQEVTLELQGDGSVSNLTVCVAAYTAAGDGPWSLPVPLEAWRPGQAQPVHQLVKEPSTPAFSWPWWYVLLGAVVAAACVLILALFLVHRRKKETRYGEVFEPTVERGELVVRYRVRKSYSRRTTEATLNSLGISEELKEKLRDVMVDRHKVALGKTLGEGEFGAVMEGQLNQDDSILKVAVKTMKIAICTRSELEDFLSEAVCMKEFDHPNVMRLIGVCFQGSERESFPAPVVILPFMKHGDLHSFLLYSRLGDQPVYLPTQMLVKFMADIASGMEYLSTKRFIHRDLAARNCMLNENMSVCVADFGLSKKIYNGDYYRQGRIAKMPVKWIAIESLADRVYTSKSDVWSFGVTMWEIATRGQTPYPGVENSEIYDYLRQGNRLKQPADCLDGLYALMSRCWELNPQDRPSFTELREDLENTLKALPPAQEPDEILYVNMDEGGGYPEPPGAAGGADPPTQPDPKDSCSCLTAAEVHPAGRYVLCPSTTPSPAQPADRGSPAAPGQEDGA
Description: AXL autophosphorylation ELISA in A-172 cells. It counts as cell-based. The conditions noted are these: Table 3 Cellular Activities, Gas6-stimulated, phospho-AXL ELISA. The procedure, abridged:
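Phospho-AXL in lysates measured by ELISA after Gas6 stimulation (1 μg/mL, 15 min) of A-172 cells pre-incubated 1 h with an 8-point compound dilution series in 0.3% DMSO after 24 h serum starvation. IC50 by 4-parameter logistic fit, with DMSO-treated and reference-inhibitor wells as 100% and 0% activity.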
Background: An ELISA detects its analyte on a solid surface through an enzyme-linked reagent.

In assay [2] the target is Met (Homo sapiens, UniProt P08581). Description: Met autophosphorylation ELISA in PC-3 cells. The format is cell-based. Details: endogenous in cells; host or cells: PC-3 prostate cancer cells (ATCC #CRL-1435). Conditions: Table 3 Cellular Activities, HGF-stimulated, phospho-Met ELISA, read-out: c-Met IC50. Summed up:
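IC50 derived by 4-parameter logistic regression of phospho-Met (panTyr) sandwich ELISA signal, scaled between HGF-stimulated DMSO and reference-inhibitor lysates. PC-3 cells, serum-starved 3 h, received an 8-point compound series (0.3% DMSO) for 1 h before 10 min stimulation with 100 ng/mL human HGF.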

Met, sequence (P08581 25-1390): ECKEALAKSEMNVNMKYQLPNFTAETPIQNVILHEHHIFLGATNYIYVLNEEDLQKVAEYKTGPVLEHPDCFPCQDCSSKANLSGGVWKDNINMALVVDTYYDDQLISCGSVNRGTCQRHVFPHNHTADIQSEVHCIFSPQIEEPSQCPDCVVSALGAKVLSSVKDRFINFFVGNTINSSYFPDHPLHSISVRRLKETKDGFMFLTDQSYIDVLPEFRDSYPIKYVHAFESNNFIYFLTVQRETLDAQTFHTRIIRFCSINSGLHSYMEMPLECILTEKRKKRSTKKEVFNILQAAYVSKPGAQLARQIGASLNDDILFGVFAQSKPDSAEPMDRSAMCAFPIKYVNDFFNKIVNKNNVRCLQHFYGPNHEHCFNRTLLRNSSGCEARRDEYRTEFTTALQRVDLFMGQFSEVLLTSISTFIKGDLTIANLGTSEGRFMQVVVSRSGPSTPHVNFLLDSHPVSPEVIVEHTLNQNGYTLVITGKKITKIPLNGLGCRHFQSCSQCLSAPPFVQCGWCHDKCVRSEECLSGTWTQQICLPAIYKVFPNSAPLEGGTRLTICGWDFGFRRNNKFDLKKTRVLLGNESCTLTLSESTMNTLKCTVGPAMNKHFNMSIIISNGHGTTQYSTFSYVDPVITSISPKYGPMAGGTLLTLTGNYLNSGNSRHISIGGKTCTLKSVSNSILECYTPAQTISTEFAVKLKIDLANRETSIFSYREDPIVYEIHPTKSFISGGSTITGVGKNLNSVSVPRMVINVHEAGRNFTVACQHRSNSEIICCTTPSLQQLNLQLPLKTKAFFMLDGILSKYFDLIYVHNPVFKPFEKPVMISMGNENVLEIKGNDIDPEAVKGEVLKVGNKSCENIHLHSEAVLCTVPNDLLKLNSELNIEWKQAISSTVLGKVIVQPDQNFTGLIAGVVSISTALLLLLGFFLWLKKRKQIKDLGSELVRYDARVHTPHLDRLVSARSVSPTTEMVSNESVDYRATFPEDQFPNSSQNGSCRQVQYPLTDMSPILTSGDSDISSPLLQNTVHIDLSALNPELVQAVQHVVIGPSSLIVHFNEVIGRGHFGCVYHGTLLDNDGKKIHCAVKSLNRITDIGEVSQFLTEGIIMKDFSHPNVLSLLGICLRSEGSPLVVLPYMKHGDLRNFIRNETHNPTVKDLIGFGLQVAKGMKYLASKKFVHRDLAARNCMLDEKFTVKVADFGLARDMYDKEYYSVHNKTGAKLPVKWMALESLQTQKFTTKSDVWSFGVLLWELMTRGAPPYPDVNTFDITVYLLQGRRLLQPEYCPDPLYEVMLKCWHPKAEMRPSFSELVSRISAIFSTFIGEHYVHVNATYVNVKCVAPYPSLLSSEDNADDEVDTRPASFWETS

Turning to `COc1cc2nccc(Oc3ccc(NC(=O)c4c5n(c(C)c(-c6ccsc6)c4=O)CCOC5)cc3F)c2nc1OC` [Compound 307, N-[4-[(6,7-Dimethoxy-1,5-naphthyridin-4-yl)oxy]-3-fluorophenyl]-6-methyl-8-oxo-7-thiophen-3-yl-3,4-dihydro-1H-pyrido[2,1-c][1,4]oxazine-9-carboxamide], the concentration for half-maximal inhibition (IC50) in assay [1] and in assay [2] was not above 100 nM throughout.

For `COc1cnc2c(Oc3ccc(NC(=O)c4cnc(C)c(-c5cccs5)c4O)cc3)ccnc2c1` [Compound 257, 4-Hydroxy-N-[4-[(7-methoxy-1,5-naphthyridin-4-yl)oxy]phenyl]-6-methyl-5-thiophen-2-ylpyridine-3-carboxamide], the IC50 in assay [1] and in assay [2] was not above 100 nM in each case.

As to `COc1cc2nccc(Oc3ccc(NC(=O)c4ccc(C)n(-c5ccc(F)cn5)c4=O)cc3)c2nc1OC` [Compound 44, N-[4-[(6,7-Dimethoxy-1,5-naphthyridin-4-yl)oxy]phenyl]-1-(5-fluoropyridin-2-yl)-6-methyl-2-oxopyridine-3-carboxamide], the IC50 in assay [1] and in assay [2] was not above 100 nM each time.

For `COc1cc2nccc(Oc3ccc(NC(=O)c4cnc(C)c(-c5ccco5)n4)cc3F)c2nc1OC` [Compound 269, N-[4-[(6,7-Dimethoxy-1,5-naphthyridin-4-yl)oxy]-3-fluorophenyl]-6-(furan-2-yl)-5-methylpyrazine-2-carboxamide], the IC50 in assay [1] was 300 to 1000 nM; in assay [2] it was not above 100 nM.

As to `Cc1ccc(C(=O)Nc2ccc(Oc3ccnc4cccnc34)c(F)c2)c(=O)n1-c1ccc(F)cn1` [Compound 48, N-[3-Fluoro-4-(1,5-naphthyridin-4-yloxy)phenyl]-1-(5-fluoropyridin-2-yl)-6-methyl-2-oxopyridine-3-carboxamide], the IC50 in assay [1] and in assay [2] was not above 100 nM throughout.

On to `COc1ccc2nccc(Oc3ccc(NC(=O)c4ccc(C)n(-c5ccc(F)cn5)c4=O)cc3F)c2c1` [Compound 49, N-[3-Fluoro-4-(6-methoxyquinolin-4-yl)oxyphenyl]-1-(5-fluoropyridin-2-yl)-6-methyl-2-oxopyridine-3-carboxamide], for which the IC50 in assay [1] and in assay [2] was not above 100 nM in each case.

For `COc1cc2nccc(Oc3ccc(NC(=O)c4ccc(C)n(-c5ccc(F)cn5)c4=O)cc3F)c2nc1OC` [Compound 43, N-[4-[(6,7-Dimethoxy-1,5-naphthyridin-4-yl)oxy]-3-fluorophenyl]-1-(5-fluoropyridin-2-yl)-6-methyl-2-oxopyridine-3-carboxamide], the IC50 in assay [1] and in assay [2] was not above 100 nM in each case.
